Results: patent publication US20080009418A1, “Selective Inhibitors” (Alchemia LTD., priority 2004, published 2008)

Experiments:
Human neurokinin (NK1) = target: T1, Human neurokinin (NK1) (Homo sapiens, UniProt P25103); experiment: Radioligand binding, human neurokinin NK1 membranes, filtration, [125I]-Substance P; details: compound at 10 μM, [125I]-Substance P
T1 construct: purchased Perkin Elmer Biosignal
In short: (§1)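 Percent inhibition of radioligand binding measured on recombinant human membranes: NK1 with [125I]-Substance P, KOP with [3H]-Diprenorphine. Incubation 1 h at room temperature, then harvest onto 0.3% PEI-soaked filters, cold Tris-HCl pH 7.4 washes and scintillation counting; non-specific binding from reference ligand wells.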

Human κ-Opioid (KOP) = target: T2, Human κ-Opioid (KOP) (Homo sapiens, UniProt P41145); experiment: Radioligand binding, human κ-opioid (KOP) membranes, filtration, [3H]-Diprenorphine; details: compound at 10 μM, [3H]-Diprenorphine
T2 construct: purchased Perkin Elmer Biosignal
T2 sequence (P41145 whole entry): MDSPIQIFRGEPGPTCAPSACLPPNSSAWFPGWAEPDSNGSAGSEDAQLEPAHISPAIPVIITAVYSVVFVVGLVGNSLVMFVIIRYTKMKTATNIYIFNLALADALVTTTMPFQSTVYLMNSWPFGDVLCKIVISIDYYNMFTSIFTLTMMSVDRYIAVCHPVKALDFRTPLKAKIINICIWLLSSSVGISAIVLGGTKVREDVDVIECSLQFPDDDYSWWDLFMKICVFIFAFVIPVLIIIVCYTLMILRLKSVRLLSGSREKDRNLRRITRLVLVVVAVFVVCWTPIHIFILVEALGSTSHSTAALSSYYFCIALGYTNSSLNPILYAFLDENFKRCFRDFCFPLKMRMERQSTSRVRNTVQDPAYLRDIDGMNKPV
In short: as §1

Mouse urotensin (mUR2) = target: T3, Mouse urotensin (mUR2) (Mus musculus, UniProt Q8VIH9); experiment: Radioligand binding, mouse urotensin mUR2 membranes, FlashPlate, [125I]-Urotensin II; details: compound at 10 μM, [125I]-Urotensin II
T3 construct: purchased Perkin Elmer Biosignal
T3 sequence (Q8VIH9 1-385): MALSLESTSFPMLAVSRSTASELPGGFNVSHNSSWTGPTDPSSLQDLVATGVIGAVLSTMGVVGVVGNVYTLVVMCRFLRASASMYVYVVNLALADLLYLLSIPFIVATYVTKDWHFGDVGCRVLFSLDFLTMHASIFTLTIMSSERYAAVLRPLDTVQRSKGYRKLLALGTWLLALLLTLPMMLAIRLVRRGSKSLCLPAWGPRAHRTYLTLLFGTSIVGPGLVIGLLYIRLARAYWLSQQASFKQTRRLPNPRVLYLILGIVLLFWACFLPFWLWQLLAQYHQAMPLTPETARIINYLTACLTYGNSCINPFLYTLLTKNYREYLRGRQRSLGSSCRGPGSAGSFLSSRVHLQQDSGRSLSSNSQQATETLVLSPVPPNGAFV
In short: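 Cloned mouse urotensin (mUR2) receptor membranes from Perkin Elmer Biosignal were immobilized in FlashPlate microplates using a proprietary coating. Each well got 19.5 μl buffer, then 0.5 μl of DMSO, reference ligand, or compound. Adding 5 μl of [125I]-Urotensin II, diluted to 5× final concentration in binding buffer, started binding. Plates were sealed with TopSeal-A and incubated 1 hour at room temperature in the dark. Wells were counted for 30 seconds each on a TopCount after a 60-second delay, and percentage inhibition was calculated.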

Human melanocortin (MC5) = target: T4, Human melanocortin (MC5) (Homo sapiens, UniProt P33032); experiment: Radioligand binding, human melanocortin MC5 membranes, FlashPlate, [125I]-NDP-αMSH; details: compound at 10 μM, [125I]-NDP-αMSH
T4 construct: purchased Perkin Elmer Biosignal
T4 sequence (P33032 whole entry): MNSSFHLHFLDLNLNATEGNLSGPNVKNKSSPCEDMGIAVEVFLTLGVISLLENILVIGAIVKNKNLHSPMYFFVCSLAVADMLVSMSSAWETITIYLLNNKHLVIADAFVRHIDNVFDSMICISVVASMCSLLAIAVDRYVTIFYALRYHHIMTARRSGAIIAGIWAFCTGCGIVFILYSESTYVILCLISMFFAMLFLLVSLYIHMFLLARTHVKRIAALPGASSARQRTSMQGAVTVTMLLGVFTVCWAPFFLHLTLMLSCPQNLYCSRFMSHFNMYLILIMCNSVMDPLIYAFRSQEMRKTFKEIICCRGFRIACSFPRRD
In short: (§2)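 Cloned human receptor membranes were coated onto FlashPlate wells and incubated with radioligand and compound (added from a 0.5 mM DMSO daughter plate) for 1 hour at room temperature in the dark. Scintillation counting gave percent inhibition, with DMSO defining total and reference ligand defining non-specific binding.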

Human δ-opioid (DOP) = target: T5, Human δ-opioid (DOP) (Homo sapiens, UniProt P41143); experiment: Radioligand binding, human δ-opioid (DOP) membranes, FlashPlate, [3H]-Bremazocine; details: compound at 10 μM, [3H]-Bremazocine
T5 construct: purchased Perkin Elmer Biosignal
T5 sequence (P41143 whole entry): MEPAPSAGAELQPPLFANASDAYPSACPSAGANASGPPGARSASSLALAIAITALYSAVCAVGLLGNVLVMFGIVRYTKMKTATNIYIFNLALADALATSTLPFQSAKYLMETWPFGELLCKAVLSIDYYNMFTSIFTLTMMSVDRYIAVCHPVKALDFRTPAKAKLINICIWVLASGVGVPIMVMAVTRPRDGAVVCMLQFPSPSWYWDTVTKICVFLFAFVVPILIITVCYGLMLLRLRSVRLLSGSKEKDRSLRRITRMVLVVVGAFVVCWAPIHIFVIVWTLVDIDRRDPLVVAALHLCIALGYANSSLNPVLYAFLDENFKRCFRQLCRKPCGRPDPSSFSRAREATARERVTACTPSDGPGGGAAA
In short: as §2

Human Melanocortin (MC3) = target: T6, Human Melanocortin (MC3) (Homo sapiens, UniProt P41968); experiment: Radioligand binding, human melanocortin MC3 membranes, FlashPlate, [125I]-NDP-αMSH; details: compound at 10 μM, [125I]-NDP-αMSH
T6 construct: purchased Perkin Elmer Biosignal
T6 sequence (P41968 whole entry): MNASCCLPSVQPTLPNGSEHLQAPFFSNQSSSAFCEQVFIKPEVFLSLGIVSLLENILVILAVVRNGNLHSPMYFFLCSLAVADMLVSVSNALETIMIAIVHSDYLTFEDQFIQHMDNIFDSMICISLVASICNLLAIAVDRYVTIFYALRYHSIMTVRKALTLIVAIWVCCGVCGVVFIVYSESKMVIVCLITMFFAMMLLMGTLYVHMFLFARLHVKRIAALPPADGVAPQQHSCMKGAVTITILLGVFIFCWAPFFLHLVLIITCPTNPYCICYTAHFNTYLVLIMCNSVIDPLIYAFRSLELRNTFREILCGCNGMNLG
In short: as §2

Human μ-opioid (MOP) = target: T7, Human μ-opioid (MOP) (Homo sapiens, UniProt P35372); experiment: Radioligand binding, human μ-opioid (MOP) membranes, FlashPlate, [3H]-Naloxone; details: compound at 10 μM, [3H]-Naloxone
T7 construct: purchased Perkin Elmer Biosignal
T7 sequence (P35372 whole entry): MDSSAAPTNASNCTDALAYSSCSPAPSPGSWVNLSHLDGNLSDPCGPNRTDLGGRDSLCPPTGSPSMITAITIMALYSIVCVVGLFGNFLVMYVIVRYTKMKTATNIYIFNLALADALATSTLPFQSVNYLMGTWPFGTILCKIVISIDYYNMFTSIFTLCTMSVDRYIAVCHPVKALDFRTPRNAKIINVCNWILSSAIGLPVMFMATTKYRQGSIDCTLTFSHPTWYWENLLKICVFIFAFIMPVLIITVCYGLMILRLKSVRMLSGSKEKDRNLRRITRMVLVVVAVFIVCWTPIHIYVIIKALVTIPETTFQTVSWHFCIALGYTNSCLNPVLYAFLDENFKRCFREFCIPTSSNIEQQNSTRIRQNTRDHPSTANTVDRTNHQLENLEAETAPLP
In short: as §2

Human Melanocortin (MC4) = target: T8, Human Melanocortin (MC4) (Homo sapiens, UniProt P32245); experiment: Radioligand binding, human melanocortin MC4 membranes, FlashPlate, [125I]-NDP-αMSH; details: compound at 10 μM, [125I]-NDP-αMSH
T8 construct: purchased Perkin Elmer Biosignal
T8 sequence (P32245 whole entry): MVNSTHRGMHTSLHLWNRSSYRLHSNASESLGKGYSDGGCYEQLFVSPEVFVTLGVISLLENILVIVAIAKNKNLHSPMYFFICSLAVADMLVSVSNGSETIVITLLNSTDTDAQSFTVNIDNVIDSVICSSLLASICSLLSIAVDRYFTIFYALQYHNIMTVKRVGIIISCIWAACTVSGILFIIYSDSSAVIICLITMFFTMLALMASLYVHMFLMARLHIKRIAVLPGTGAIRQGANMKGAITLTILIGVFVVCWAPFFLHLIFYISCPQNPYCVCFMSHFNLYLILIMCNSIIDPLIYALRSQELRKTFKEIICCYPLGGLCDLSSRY
In short: as §2

[1] = target: T9, Human melanin-concentrating hormone (MCH1) (Homo sapiens, UniProt Q99705); experiment: Radioligand binding, human melanin-concentrating hormone MCH1 membranes, FlashPlate, [125I]-S36057; details: compound at 10 μM
T9 construct: purchased Perkin Elmer Biosignal
T9 sequence (Q99705 whole entry): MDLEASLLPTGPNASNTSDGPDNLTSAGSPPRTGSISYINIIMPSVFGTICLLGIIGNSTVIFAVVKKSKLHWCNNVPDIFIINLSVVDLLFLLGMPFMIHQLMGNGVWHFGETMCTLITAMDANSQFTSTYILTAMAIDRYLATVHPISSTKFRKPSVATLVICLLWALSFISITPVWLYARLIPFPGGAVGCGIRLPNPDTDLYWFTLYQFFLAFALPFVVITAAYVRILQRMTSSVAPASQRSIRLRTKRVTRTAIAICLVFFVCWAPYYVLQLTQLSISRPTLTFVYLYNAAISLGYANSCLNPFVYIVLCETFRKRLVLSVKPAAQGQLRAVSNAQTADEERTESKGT
In short: as §2

[2] = target: T10, Human neuropeptide Y (NPY-Y1) (Homo sapiens, UniProt P25929); experiment: Radioligand binding, human neuropeptide Y NPY-Y1 membranes, FlashPlate, [125I]-PYY; details: compound at 10 μM, [125I]-PYY
T10 construct: purchased Perkin Elmer Biosignal
T10 sequence (P25929 1-384): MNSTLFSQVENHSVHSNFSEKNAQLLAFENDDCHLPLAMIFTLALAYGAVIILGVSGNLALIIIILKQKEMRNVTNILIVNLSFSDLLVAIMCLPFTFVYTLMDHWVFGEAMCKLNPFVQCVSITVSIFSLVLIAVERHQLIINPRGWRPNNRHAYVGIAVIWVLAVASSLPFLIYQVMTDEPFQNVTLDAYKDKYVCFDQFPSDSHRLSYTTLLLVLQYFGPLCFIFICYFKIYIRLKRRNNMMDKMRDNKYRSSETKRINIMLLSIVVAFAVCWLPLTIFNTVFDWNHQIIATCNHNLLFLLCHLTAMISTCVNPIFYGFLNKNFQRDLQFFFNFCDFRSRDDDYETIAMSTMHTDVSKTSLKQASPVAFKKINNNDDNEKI
In short: as §2

Human opioid (ORL1) = target: T11, Human opioid (ORL1) (Homo sapiens, UniProt P41146); experiment: Radioligand binding, human opioid ORL1 membranes, FlashPlate, [125I]-Nociceptin; details: compound at 10 μM, [125I]-Nociceptin
T11 construct: purchased Perkin Elmer Biosignal
T11 sequence (P41146 whole entry): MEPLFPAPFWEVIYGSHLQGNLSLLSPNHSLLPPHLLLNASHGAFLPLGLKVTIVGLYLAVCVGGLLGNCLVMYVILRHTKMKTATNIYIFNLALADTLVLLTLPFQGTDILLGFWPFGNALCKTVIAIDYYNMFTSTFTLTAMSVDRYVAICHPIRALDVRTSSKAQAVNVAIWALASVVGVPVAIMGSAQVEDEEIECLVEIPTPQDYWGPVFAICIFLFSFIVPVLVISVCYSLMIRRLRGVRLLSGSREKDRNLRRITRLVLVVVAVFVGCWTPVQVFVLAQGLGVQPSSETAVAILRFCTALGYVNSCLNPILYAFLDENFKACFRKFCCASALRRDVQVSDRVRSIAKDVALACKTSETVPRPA
In short: as §2

T1 sequence (P25103 whole entry): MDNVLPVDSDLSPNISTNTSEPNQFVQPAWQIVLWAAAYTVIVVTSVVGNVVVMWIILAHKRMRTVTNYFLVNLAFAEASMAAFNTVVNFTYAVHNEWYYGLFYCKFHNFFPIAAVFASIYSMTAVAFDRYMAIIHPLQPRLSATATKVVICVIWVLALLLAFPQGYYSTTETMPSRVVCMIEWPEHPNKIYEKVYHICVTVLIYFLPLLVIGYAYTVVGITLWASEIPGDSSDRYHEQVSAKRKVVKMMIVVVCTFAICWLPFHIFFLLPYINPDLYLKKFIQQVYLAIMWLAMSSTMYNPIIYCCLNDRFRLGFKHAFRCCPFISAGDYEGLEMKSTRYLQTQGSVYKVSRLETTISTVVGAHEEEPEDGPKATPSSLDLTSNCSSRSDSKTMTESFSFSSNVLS

## CSC1O[C@H](COCc2ccc(Cl)cc2)[C@@H](O)[C@@H](OCc2ccc(-c3ccccc3)cc2)[C@H]1NC(=O)CNC(=N)N (stereo partly shown) [compound 289]
Human neurokinin (NK1)
  A8: inhibition of radioligand binding, human neurokinin (NK1): + (“+” indicates greater than 50% inhibition at 10 μM)
Human κ-Opioid (KOP)
  A2: inhibition of radioligand binding, human κ-opioid (KOP): − (“−” indicates less than 50% inhibition at 10 μM)
Mouse urotensin (mUR2)
  A11: inhibition of radioligand binding, mouse urotensin (mUR2): − (“−” indicates less than 50% inhibition at 10 μM)
Human melanocortin (MC5)
  A5: inhibition of radioligand binding, human melanocortin (MC5): + (“+” indicates greater than 50% inhibition at 10 μM)
Human δ-opioid (DOP)
  A1: inhibition of radioligand binding, human δ-opioid (DOP): − (“−” indicates less than 50% inhibition at 10 μM)
Human Melanocortin (MC3)
  A3: inhibition of radioligand binding, human melanocortin (MC3): − (“−” indicates less than 50% inhibition at 10 μM)
Human μ-opioid (MOP)
  A7: inhibition of radioligand binding, human μ-opioid (MOP): − (“−” indicates less than 50% inhibition at 10 μM)
Human Melanocortin (MC4)
  A4: inhibition of radioligand binding, human melanocortin (MC4): + (“+” indicates greater than 50% inhibition at 10 μM)
[1]; [125I]-S36057
  A6: inhibition of radioligand binding, human melanin-concentrating hormone (MCH1): − (“−” indicates less than 50% inhibition at 10 μM)
[2]
  A9: inhibition of radioligand binding, human neuropeptide Y (NPY-Y1): − (“−” indicates less than 50% inhibition at 10 μM)
Human opioid (ORL1)
  A10: inhibition of radioligand binding, human opioid (ORL1): − (“−” indicates less than 50% inhibition at 10 μM)

## COCC1OC(OCc2ccccc2)C(NC(=O)CCCN)C(OCc2ccc(Cl)cc2)C1O (stereo not shown) [compound 180]
Human neurokinin (NK1)
  A8 radioligand binding, percentage inhibition: + (“+” indicates greater than 50% inhibition at 10 μM)
Human κ-Opioid (KOP)
  A2 radioligand binding, percentage inhibition: − (“−” indicates less than 50% inhibition at 10 μM)
Mouse urotensin (mUR2)
  A11 radioligand binding, percentage inhibition: − (“−” indicates less than 50% inhibition at 10 μM)
Human melanocortin (MC5)
  A5 radioligand binding, percentage inhibition: − (“−” indicates less than 50% inhibition at 10 μM)
Human δ-opioid (DOP)
  A1 radioligand binding, percentage inhibition: − (“−” indicates less than 50% inhibition at 10 μM)
Human Melanocortin (MC3)
  A3 radioligand binding, percentage inhibition: − (“−” indicates less than 50% inhibition at 10 μM)
Human μ-opioid (MOP)
  A7 radioligand binding, percentage inhibition: − (“−” indicates less than 50% inhibition at 10 μM)
Human Melanocortin (MC4)
  A4 radioligand binding, percentage inhibition: − (“−” indicates less than 50% inhibition at 10 μM)
[1]; [125I]-S36057
  A6 radioligand binding, percentage inhibition: − (“−” indicates less than 50% inhibition at 10 μM)
[2]
  A9 radioligand binding, percentage inhibition: − (“−” indicates less than 50% inhibition at 10 μM)
Human opioid (ORL1)
  A10 radioligand binding, percentage inhibition: − (“−” indicates less than 50% inhibition at 10 μM)

## COCC1OC(OCc2ccc(Cl)cc2)C(NC(=O)CCN)C(OCc2ccc(Cl)cc2)C1O (stereo not shown) [compound 201]
Human neurokinin (NK1); filtration
  A8: inhibition of radioligand binding: + (“+” indicates greater than 50% inhibition at 10 μM)
Human κ-Opioid (KOP); filtration
  A2: inhibition of radioligand binding: − (“−” indicates less than 50% inhibition at 10 μM)
Mouse urotensin (mUR2); FlashPlate
  A11: inhibition of radioligand binding: − (“−” indicates less than 50% inhibition at 10 μM)
Human melanocortin (MC5); FlashPlate
  A5: inhibition of radioligand binding: + (“+” indicates greater than 50% inhibition at 10 μM)
Human δ-opioid (DOP); FlashPlate
  A1: inhibition of radioligand binding: − (“−” indicates less than 50% inhibition at 10 μM)
Human Melanocortin (MC3); FlashPlate
  A3: inhibition of radioligand binding: − (“−” indicates less than 50% inhibition at 10 μM)
Human μ-opioid (MOP); FlashPlate
  A7: inhibition of radioligand binding: − (“−” indicates less than 50% inhibition at 10 μM)
Human Melanocortin (MC4); FlashPlate
  A4: inhibition of radioligand binding: − (“−” indicates less than 50% inhibition at 10 μM)
[1]; [125I]-S36057, FlashPlate
  A6: inhibition of radioligand binding: − (“−” indicates less than 50% inhibition at 10 μM)
[2]; FlashPlate
  A9: inhibition of radioligand binding: − (“−” indicates less than 50% inhibition at 10 μM)
Human opioid (ORL1); FlashPlate
  A10: inhibition of radioligand binding: − (“−” indicates less than 50% inhibition at 10 μM)

## N=C(N)NCC(=O)NC1C(OCc2ccc(Cl)cc2)OC(COCc2ccccc2)C(O)C1OCc1ccc(-c2ccccc2)cc1 (stereo not shown) [compound 424]
Human neurokinin (NK1); human NK1 membranes
  A8: inhibition of radioligand binding: + (“+” indicates greater than 50% inhibition at 10 μM)
Human κ-Opioid (KOP); human KOP membranes
  A2: inhibition of radioligand binding: − (“−” indicates less than 50% inhibition at 10 μM)
Mouse urotensin (mUR2); mouse mUR2 membranes
  A11: inhibition of radioligand binding: − (“−” indicates less than 50% inhibition at 10 μM)
Human melanocortin (MC5); human MC5 membranes
  A5: inhibition of radioligand binding: + (“+” indicates greater than 50% inhibition at 10 μM)
Human δ-opioid (DOP); human DOP membranes
  A1: inhibition of radioligand binding: − (“−” indicates less than 50% inhibition at 10 μM)
Human Melanocortin (MC3); human MC3 membranes
  A3: inhibition of radioligand binding: + (“+” indicates greater than 50% inhibition at 10 μM)
Human μ-opioid (MOP); human MOP membranes
  A7: inhibition of radioligand binding: − (“−” indicates less than 50% inhibition at 10 μM)
Human Melanocortin (MC4); human MC4 membranes
  A4: inhibition of radioligand binding: + (“+” indicates greater than 50% inhibition at 10 μM)
[1]; [125I]-S36057, human MCH1 membranes
  A6: inhibition of radioligand binding: − (“−” indicates less than 50% inhibition at 10 μM)
[2]; human NPY-Y1 membranes
  A9: inhibition of radioligand binding: − (“−” indicates less than 50% inhibition at 10 μM)
Human opioid (ORL1); human ORL1 membranes
  A10: inhibition of radioligand binding: − (“−” indicates less than 50% inhibition at 10 μM)

## CSC1OC(COCc2ccc(Cl)cc2)C(O)C(OCc2ccc3ccccc3c2)C1NC(=O)CN (stereo not shown) [compound 306]
Human neurokinin (NK1)
  A8: inhibition of radioligand binding, human neurokinin (NK1): + (“+” indicates greater than 50% inhibition at 10 μM)
Human κ-Opioid (KOP)
  A2: inhibition of radioligand binding, human κ-opioid (KOP): − (“−” indicates less than 50% inhibition at 10 μM)
Mouse urotensin (mUR2)
  A11: inhibition of radioligand binding, mouse urotensin (mUR2): − (“−” indicates less than 50% inhibition at 10 μM)
Human melanocortin (MC5)
  A5: inhibition of radioligand binding, human melanocortin (MC5): − (“−” indicates less than 50% inhibition at 10 μM)
Human δ-opioid (DOP)
  A1: inhibition of radioligand binding, human δ-opioid (DOP): − (“−” indicates less than 50% inhibition at 10 μM)
Human Melanocortin (MC3)
  A3: inhibition of radioligand binding, human melanocortin (MC3): − (“−” indicates less than 50% inhibition at 10 μM)
Human μ-opioid (MOP)
  A7: inhibition of radioligand binding, human μ-opioid (MOP): − (“−” indicates less than 50% inhibition at 10 μM)
Human Melanocortin (MC4)
  A4: inhibition of radioligand binding, human melanocortin (MC4): − (“−” indicates less than 50% inhibition at 10 μM)
[1]; [125I]-S36057
  A6: inhibition of radioligand binding, human melanin-concentrating hormone (MCH1): − (“−” indicates less than 50% inhibition at 10 μM)
[2]
  A9: inhibition of radioligand binding, human neuropeptide Y (NPY-Y1): − (“−” indicates less than 50% inhibition at 10 μM)
Human opioid (ORL1)
  A10: inhibition of radioligand binding, human opioid (ORL1): − (“−” indicates less than 50% inhibition at 10 μM)
